In patent US20240262844A1, “PYRIDINIUM SALTS AND METHODS OF USE” (UNIVERSITY OF WYOMING, priority 2023, published 2024):
Where a name gives a salt, the structure may show the parent alone.

Columns and labels:
HEK293T cells = assay: In-situ chemoproteomic tryptophan profiling of live HEK293T cells (peptide-level enrichment); format: cell-based, Human
Procedure: Cell culture and in-situ tryptophan probe treatment: Cell lines were cultured at 37° C. with 5% C02. Human embryonic kidney 293 cells expressing a mutant version of the SV40 large T antigen (HEKT293T cells) were grown in Dulbecco's Modified Eagle Medium (DMEM, Gibco) supplemented with 10% fetal bovine serum and 1% penicillin/streptomycin. For in-situ labeling, cells were grown to 90% confluence, washed with Dulbecco's phosphate buffered saline (DPBS), treated with 100x stocks of the tryptophan probes (the pyridinium salts) in OptiMem (GibCo) to generate final concentrations (0 μM, 1 μM, 10 μM, and 100 μM) in 1% dimethylsulfoxide (DMSO). Cells were incubated for 1 hour at 37° C. with 5% C02 followed by photo-activation at the respective wavelengths for 20 minutes at 4° C. Cells were harvested with a cell scraper, washed 3× with DPBS, and pellets were stored at −80° C. until further use. The following light sources were used for photo-activation: • Pyridinium salt 1a (also called, probe 1a): wavelength=302 nm; light source=Analytikjena, UVP 3UV Lamp, 8W. • Pyridinium salt 1b (also called, probe 1b): wavelength=320 nm; light source=Analytikjena, UVP 3UV Lamp, 8W, equipped with 320 nm long-pass filter. • Pyridinium salt 2b (also called, probe 2b): wavelength=440 nm; light source=Kessil PR-160L-440 nm LED, 45W. • Pyridinium salt 2d (also called, probe 2d): wavelength=440 nm; light source=Kessil PR-160L-440 nm LED, 45W.
In-situ tryptophan probe sample processing for peptide-level characterization: Cell pellets were lysed via sonication (QSonica) at 50% amplitude, 2 seconds ON, 3 seconds OFF, 30 seconds in 40 mM HEPES pH 7.5 (4-(2-hydroxyethyl)-1-piperazineethanesulfonic acid), 1.5 mM magnesium chloride (MgCl2), 1% Sodium dodecyl sulfate (SDS), 0.8% NP-40 (also known as nonyl phenoxypolyethoxylethanol), and 1x protease inhibitors (Thermo). Protein concentration was determined by BCA (Pierce). 400 μg protein lysate were taken for copper-catalyzed azide-alkyne cycloaddition (CuAAC) reactions with 100 μM of the acid cleavable DAPBS Biotin Alkyne (Click Chemistry Tools), 250 μM copper sulfate (CuSO4), 500 μM BTTP (C20H34N10O2) (Click Chemistry Tools), and 2.5 mM ascorbate and incubated for 60 minutes at R.T. Samples were precipitated with methanol:chloroform and re-suspended in 50 mM HEPES pH 8.0 containing 1% RapiGest SF (Waters). The samples were reduced with 10 mM dithiothreitol (DTT) (Pierce) and alkylated with 25 mM iodoacetamide (Pierce). The samples were diluted down to 0.1% RapiGest SF and treated with 4 μg Trypsin/LysC (Promega) at 37° C. for 16 hours. The digested peptides were than labeled with isobaric tandem mass tag (TMT) reagents (Thermo) as specified by the manufacturer. The labeled peptides were then combined, concentrated to remove acetonitrile, and re-suspended in 50 mM HEPES pH 8.0 containing 0.2% SDS. The labeled peptides were then treated with 100 μL Neutravidin resin as a 50% slurry (Peirce) for 16 hours at R.T. The following day, the Neutravidin resin was washed extensively with 50 mM HEPES pH 8.0 containing 0.2% SDS (3×), 50 mM HEPES pH 8.0 (5x), and double-distilled water (ddH2O) (5×). The bound peptides were then cleaved from the resin by incubating with 100 μL 10% formic acid for 30 minutes (2×).
Quantitative proteomics by two-dimensional nano liquid chromatography-tandem mass spectrometry (nLC-MS/MS): For protein-level characterization, the TMT-labeled sample were reconstituted in 0.1% formic acid (FA)/2% acetonitrile for offline high-pH reversed phase separation (RP10) using a Dionex UltiMate 3000 high-performance liquid chromatography (HPLC) system with fraction collection using Chromeleon v.6.8 (Thermo) software. Separation was achieved on a Waters Xbridge C18 3.5 μm 2.1×150 mm HPLC column (Waters) using a flow rate of 250 μL min-1 and the following ternary gradient and conditions: mobile phase A=water (HPLC grade), mobile phase B=acetonitrile (HPLC grade), and mobile phase C=200 mM ammonium acetate, pH 10. […]

PARP1 = biological target: T1, PARP1 (Homo sapiens, UniProt P09874); assay: In-situ labeling and enrichment of PARP1 in HEK293T cells (MS-MS, Western); format: cell-based
T1 construct: endogenous in cells; host or cells: HEK293T
Procedure: Cell culture and in-situ tryptophan probe treatment: Cell lines were cultured at 37° C. with 5% C02. Human embryonic kidney 293 cells expressing a mutant version of the SV40 large T antigen (HEKT293T cells) were grown in Dulbecco's Modified Eagle Medium (DMEM, Gibco) supplemented with 10% fetal bovine serum and 1% penicillin/streptomycin. For in-situ labeling, cells were grown to 90% confluence, washed with Dulbecco's phosphate buffered saline (DPBS), treated with 100x stocks of the tryptophan probes (the pyridinium salts) in OptiMem (GibCo) to generate final concentrations (0 μM, 1 μM, 10 μM, and 100 μM) in 1% dimethylsulfoxide (DMSO). Cells were incubated for 1 hour at 37° C. with 5% C02 followed by photo-activation at the respective wavelengths for 20 minutes at 4° C. Cells were harvested with a cell scraper, washed 3× with DPBS, and pellets were stored at −80° C. until further use. […]
In-situ tryptophan probe sample processing for peptide-level characterization: Cell pellets were lysed via sonication (QSonica) at 50% amplitude, 2 seconds ON, 3 seconds OFF, 30 seconds in 40 mM HEPES pH 7.5 (4-(2-hydroxyethyl)-1-piperazineethanesulfonic acid), 1.5 mM magnesium chloride (MgCl2), 1% Sodium dodecyl sulfate (SDS), 0.8% NP-40 (also known as nonyl phenoxypolyethoxylethanol), and 1x protease inhibitors (Thermo). Protein concentration was determined by BCA (Pierce). […]

[1] = about 100 μM probe, 60 min 37° C., 440 nm 20 min 4° C.

T1 sequence (P09874 whole entry): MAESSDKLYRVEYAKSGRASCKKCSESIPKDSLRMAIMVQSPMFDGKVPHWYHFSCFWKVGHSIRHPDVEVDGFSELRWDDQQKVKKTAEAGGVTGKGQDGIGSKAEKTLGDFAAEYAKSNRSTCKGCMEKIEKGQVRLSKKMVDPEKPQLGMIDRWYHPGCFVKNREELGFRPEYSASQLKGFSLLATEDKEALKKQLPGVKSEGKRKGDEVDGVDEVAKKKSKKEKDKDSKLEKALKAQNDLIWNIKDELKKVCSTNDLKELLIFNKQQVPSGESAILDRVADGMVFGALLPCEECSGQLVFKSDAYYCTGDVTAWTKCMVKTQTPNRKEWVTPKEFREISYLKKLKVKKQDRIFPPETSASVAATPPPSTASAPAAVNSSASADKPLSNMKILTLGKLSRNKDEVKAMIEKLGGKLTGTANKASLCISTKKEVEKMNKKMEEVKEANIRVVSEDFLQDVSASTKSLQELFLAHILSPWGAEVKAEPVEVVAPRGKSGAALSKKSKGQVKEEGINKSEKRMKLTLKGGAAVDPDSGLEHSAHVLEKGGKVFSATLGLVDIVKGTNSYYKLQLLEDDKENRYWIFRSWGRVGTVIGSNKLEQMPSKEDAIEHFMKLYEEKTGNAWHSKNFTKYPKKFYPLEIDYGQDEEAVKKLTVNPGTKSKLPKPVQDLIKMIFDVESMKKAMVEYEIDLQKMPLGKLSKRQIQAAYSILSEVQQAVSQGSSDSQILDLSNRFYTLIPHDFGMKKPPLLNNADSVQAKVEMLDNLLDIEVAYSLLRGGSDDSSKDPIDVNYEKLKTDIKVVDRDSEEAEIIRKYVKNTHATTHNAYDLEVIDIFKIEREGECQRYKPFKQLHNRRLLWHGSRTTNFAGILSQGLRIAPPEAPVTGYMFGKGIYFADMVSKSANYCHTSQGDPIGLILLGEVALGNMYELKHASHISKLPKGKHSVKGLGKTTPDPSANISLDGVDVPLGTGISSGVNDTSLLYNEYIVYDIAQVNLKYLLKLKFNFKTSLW

Structure (SMILES): COc1ccc2cc(-c3cc(C)[n+](N(C)C(=O)OCCCCCCN=[N+]=[N-])c(C)c3)ccc2c1 [Pyridinium salt 2d, 1-((((6-azidohexyl)oxy)carbonyl)(methyl)amino)-4-(6-methoxynaphthalen-2-yl)-2,6-dimethylpyridin-1-ium tetrafluoroborate]
- probe concentration giving measurable two-fold enrichment of Trp-modified peptides (HEK293T cells; 440 nm photoirradiation): about 10 μM
- number of Trp-modified peptide fragments showing dose-response behavior (HEK293T cells; [1]): 290
- number of unique proteins corresponding to Trp-modified peptide fragments (HEK293T cells; [1]): 209
- number of unique peptides harboring a tryptophan modification (HEK293T cells; chemoselectivity profile, in situ): 221
- plasma membrane permeation (HEK293T cells; inferred from subcellular localization of labeled proteins): readily crosses the plasma membrane
- thermal stability under whole cell culture conditions (HEK293T cells; no peptide enrichment without 440 nm photoirradiation): robust thermal stability
- selectivity for tryptophan, relative amino acid frequency taken into account (HEK293T cells; versus His, Tyr, Cys modifications, in situ): about 82%
- modified and dose-dependently enriched tryptophan residues (PARP1; chemoproteomic profiling, HEK293T cells): Trp79 and Trp318
- PARP1 in enriched protein mixture (Western analysis) (PARP1; cultures irradiated with blue light in the presence of probe, protein-level enrichment): found to contain both proteins
